From patent US10316064B2, “Teicoplanin analogs and uses thereof” (Academia Sinica, priority 2014, dated 2019)
Values after ≈ are worked out from the molar mass of the structure shown. Read-outs that look alike come from different tables or passages of the source.

Columns and labels:
Orf11*/Dbv8 = test: Isothermal titration calorimetry (ITC) analysis of substrate-enzyme affinity; format: binding; settings: ligand injected into protein solution (0.1 mM)
Protocol: (§1) ITC thermograms of Orf11* versus CoA, acetyl-CoA, butyryl-CoA, hexanoyl-CoA, octanoyl-CoA, decanoyl-CoA, lauroyl-CoA, myristoyl-CoA, palmitoyl-CoA, stearoyl-CoA or Tei-pseudoaglycone. Each exothermic heat pulse corresponds to an injection of 2 μl of ligands (1 mM˜5 mM) into a protein solution (0.1 mM); integrated heat areas constitute a differential binding curve that was fitted with a standard single-site binding model (Origin 7.0, MicroCal iTC200).
(§2) Protein expression, purification and confirmation of purity were performed according to standard protocols. Acyl-CoA analogs were chemically synthesized as described previously (Huang, Y. T. et al. In vitro characterization of enzymes involved in the synthesis of nonproteinogenic residue (2S,3S)-beta-methylphenylalanine in glycopeptide antibiotic mannopeptimycin. Chembiochem 10, 2480-2487, doi:10.1002/cbic.200900351 (2009); Li, T. L., Spiteller, D. & Spencer, J. B. Identification of a pentaketide stilbene produced by a type III polyketide synthase from Pinus sylvestris and characterisation of free coenzyme A intermediates. Chembiochem 10, 896-901, doi:10.1002/cbic.200800840 (2009)). Single-wavelength anomalous dispersion (SAD) and molecular replacement (MR) methods were used to solve structures of native and complex Orf11*/Dbv8. Mutants were made by using QuickChange®. Biochemical analyses for wild type protein and mutants were performed using LC-MS. Oligomerization states of the proteins in solution were determined by gel filtration chromatography and analytical ultracentrifugation (AUC). Substrate-enzyme affinity was determined using isothermal titration calorimetry (ITC). Biological assays were performed according standard protocols.

Orf11* = target: T1, Orf11* (Actinoplanes teichomyceticus, UniProt Q70AY4); test: isothermal titration calorimetry (ITC) of acyl-CoA ligands versus Orf11* (FIG. 9); format: binding
T1 sequence (Q70AY4 1-323): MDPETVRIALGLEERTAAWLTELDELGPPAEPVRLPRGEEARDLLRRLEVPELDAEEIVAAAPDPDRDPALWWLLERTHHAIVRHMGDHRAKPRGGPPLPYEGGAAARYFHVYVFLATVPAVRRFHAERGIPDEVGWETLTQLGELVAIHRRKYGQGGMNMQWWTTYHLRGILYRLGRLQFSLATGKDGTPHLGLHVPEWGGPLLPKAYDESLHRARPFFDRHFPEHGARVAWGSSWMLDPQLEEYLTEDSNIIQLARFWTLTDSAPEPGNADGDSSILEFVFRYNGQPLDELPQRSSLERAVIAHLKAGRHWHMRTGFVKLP
Protocol: as §1
The orf11* and dbv8 genes were amplified and subcloned into the expression vector pET28a(+). The clones were transformed into E. coli BL21(DE3) for protein over-expression. A typical procedure is described as follows: One liter of LB medium containing 50 mg/L kanamycin was inoculated with 10 mL of an overnight culture grown in LB medium (containing 50 mg/L kanamycin), induced with 1 mL 1.0M IPTG (to give 1.0 mM; exact concentrations varied between proteins) at an OD600 of 0.7, and grown for a further 8 hours at 16° C. Cells were harvested by centrifugation at 6000 rpm for 20 min at 4° C., resuspended in 30 mL binding buffer (50 mM Tris at pH 8.0, 500 mM NaCl, 10 mM imidazole, 10% glycerol) and disrupted by microfluidizer. The cell lysate was centrifuged at 18000 rpm for 30 minutes to remove cell debris. The supernatant was applied to a Ni^2+-NTA agarose resin column (2 mL, Novagen) pre-equilibrated with binding buffer. The column was washed sequentially with 20 mL of binding buffer and 10 mL washing buffer (50 mM Tris at pH 8.0, 500 mM NaCl, 50 mM imidazole, 10% glycerol). The bound protein then was eluted with 10 mL of elution buffer (50 mM Tris at pH 8.0, 500 mM NaCl, 250 mM imidazole, 10% glycerol). Gel filtration was performed using an Äkta FPLC system equipped with an S-200 Superdex column (Amersham Bioscience) under isocratic conditions (50 mM Tris at pH 8.0, 500 mM NaCl). The buffer was exchanged using Millipore centrifugal filters and HEPES buffer (50 mM, pH 8.0). Protein purity was determined by SDS-PAGE and Western blotting, and electrospray mass spectrometry (ESI-MS). Protein concentrations were estimated using the Bradford assay.
as §2
The GNAT domain in Orf11*/Dbv8 differs from the canonical GNAT fold as it lacks the first β strand, and the C-terminus extends with four additional helices (α10-α13). β-Strands β3 and β4 splay apart at C-termini, where Pro198 replaces a typical β-bulge. In a decanoyl-CoA-complexed binary structure (FIG. 2c), the decanoyl-CoA bends in an ‘S’ shape edging in the splayed fingers β3 and β4 (FIG. 8). […]

ATCC 51559 = test: MIC by broth microdilution (NCCLS); format: cell-based, E. faecalis
Protocol: (§3) The MIC values were determined by the broth microdilution method, as recommended by the National Committee for Clinical Laboratory Standards (NCCLS). Briefly, overnight cultures of tested bacteria were suspended to a turbidity of 0.1 OD units (1˜5×10^8 CFU/ml). Microtiter plates containing serial dilutions of each antimicrobial agent (0, 1, 2, 4, 8, 16, 32, 64, and 128 μg/ml) were inoculated with each organism to yield the appropriate density (1˜5×10^5 CFU/ml) in a 200 μL final volume. The plates were incubated for 18˜22 h at 37° C.
(§4) MICs were determined as concentrations at which no growth was observed against the strain tested. Experiments were performed in double duplicate. ATCC 29302/ATCC 33186: a standard strain; ATCC 51299: a low-level vancomycin-resistant (VanB type); ATCC 51559: a multidrug-resistant strain (ampicillin, ciprofloxacin, gentamicin, rifampin, teicoplanin and vancomycin, VanA type VRE); ATCC 700221: a strain resistant to vancomycin, VanA type VRE. ATCC 700802 is a strain resistant to gentamicins and vancomycin.

ATCC 29302 = test: MIC by broth microdilution (NCCLS); format: cell-based
Protocol: as §3, §4

ATCC 33186 = test: MIC by broth microdilution (NCCLS); format: cell-based
Protocol: as §3, §4

ATCC 700221 = test: MIC by broth microdilution (NCCLS); format: cell-based
Protocol: as §3, §4

ATCC 51299 = test: MIC by broth microdilution (NCCLS); format: cell-based
Protocol: as §3, §4

ATCC 700802 = test: MIC by broth microdilution (NCCLS); format: cell-based
Protocol: as §3, §4

E. faecalis (ATCC 51559) = test: Mouse infection treatment study, ED50 (rescue of 50% infected mice); format: in vivo
Protocol: The preliminary ED50 (potency) of the 2-decanoyl,6-octanoyl teicoplanin analog was determined as follows. 6-8 weeks BALB/c female mice were purchased from the National Laboratory Animal Breeding and Research Center, Taipei, Taiwan. Mice with average body weight of 25 to 30 g were subjected to infection via intraperitoneal (i.p.) injection with 1×10^10 cfu/mouse of E. faecalis (ATCC 51559) at day 0. For the treatment study, mice were randomly assigned into five groups at the start of the experiment and administered different amount of either vancomycin, teicoplanin, 2-C10-6-C8-Teicoplanin, or saline (as a blank control) by i.v. twice a day for two days (from day 1 to day 2, a total of 4 doses). The ED50 was determine by the concentration of compounds sufficient to rescue 50% infected mice.

[1] = ITC, injections of 2 μl of ligand (1 mM˜5 mM) into protein solution (0.1 mM), single-site binding model (Origin 7.0, MicroCal iTC200), Orf11* expressed from pET28a(+) in E. coli BL21(DE3), no mutation stated, read-out: dissociation constant (Kd)
[2] = standard strain, 18~22 h at 37° C.

## Tei pseudoaglycone [Tei pseudoaglycone 3]
Orf11*/Dbv8
  binding to the enzyme (ITC): barely binds

## CC(C)(COP(=O)(O)OP(=O)(O)OC[C@H]1O[C@@H](n2cnc3c(N)ncnc32)[C@H](O)[C@@H]1OP(=O)(O)O)[C@@H](O)C(=O)NCCC(=O)NCCSC(=O)c1ccccc1 [benzoyl-CoA]
Orf11*/Dbv8
  binding to the enzyme (ITC): does not bind

## CCCCCC(=O)SCCNC(=O)CCNC(=O)[C@H](O)C(C)(C)COP(=O)(O)OP(=O)(O)OC[C@H]1O[C@@H](n2cnc3c(N)ncnc32)[C@H](O)[C@@H]1OP(=O)(O)O [hexanoyl-CoA]
Orf11*; [1]
  Kd: 85.6 ± 9 µM

## CCCCCCCCCCCCCC(=O)SCCNC(=O)CCNC(=O)[C@H](O)C(C)(C)COP(=O)(O)OP(=O)(O)OC[C@H]1O[C@@H](n2cnc3c(N)ncnc32)[C@H](O)[C@@H]1OP(=O)(O)O [myristoyl-CoA]
Orf11*
  Kd: 5.9 ± 1.2 µM

## CC(C)(COP(=O)(O)OP(=O)(O)OC[C@H]1O[C@@H](n2cnc3c(N)ncnc32)[C@H](O)[C@@H]1OP(=O)(O)O)[C@@H](O)C(=O)NCCC(=O)NCCSC(=O)CC(=O)O [malonyl-CoA]
Orf11*/Dbv8
  binding to the enzyme (ITC): does not bind

## CCCCCCCCCC(=O)SCCNC(=O)CCNC(=O)[C@H](O)C(C)(C)COP(=O)(O)OP(=O)(O)OC[C@H]1O[C@@H](n2cnc3c(N)ncnc32)[C@H](O)[C@@H]1OP(=O)(O)O [decanoyl-CoA]
Orf11*; [1]
  Kd: 1 ± 0.1 µM

## CCCC(=O)SCCNC(=O)CCNC(=O)[C@H](O)C(C)(C)COP(=O)(O)OP(=O)(O)OC[C@H]1O[C@@H](n2cnc3c(N)ncnc32)[C@H](O)[C@@H]1OP(=O)(O)O [butyryl-CoA]
Orf11*
  Kd: 111 ± 23 µM

## CCCCCCCCCCCC(=O)SCCNC(=O)CCNC(=O)[C@H](O)C(C)(C)COP(=O)(O)OP(=O)(O)OC[C@H]1O[C@@H](n2cnc3c(N)ncnc32)[C@H](O)[C@@H]1OP(=O)(O)O [lauroyl-CoA]
Orf11*; [1]
  Kd: 4.1 ± 0.8 µM

## Teicoplanin
ATCC 51559; multidrug-resistant strain, VanA type VRE, 18~22 h at 37° C.
  MIC ATCC 51559: 256 µg/mL
ATCC 29302; [2]
  MIC ATCC 29302: 0.25 µg/mL
ATCC 33186; [2]
  MIC ATCC 33186: 0.25 µg/mL
ATCC 700221; resistant to vancomycin, VanA type VRE, 18~22 h at 37° C.
  MIC ATCC 700221: >128 µg/mL
ATCC 51299; low-level vancomycin-resistant (VanB type), 18~22 h at 37° C.
  MIC ATCC 51299: 0.5 µg/mL
ATCC 700802; resistant to gentamicins and vancomycin, 18~22 h at 37° C.
  MIC ATCC 700802: 0.5 µg/mL
E. faecalis (ATCC 51559); BALB/c female mice infected i.p. with 1×10^10 cfu/mouse, i.v. twice a day for two days (4 doses), amount rescuing 50% infected mice, preliminary
  ED50 against ATCC 51559: >128 mg/kg

## CCCCCCCC(=O)SCCNC(=O)CCNC(=O)[C@H](O)C(C)(C)COP(=O)(O)OP(=O)(O)OC[C@H]1O[C@@H](n2cnc3c(N)ncnc32)[C@H](O)[C@@H]1OP(=O)(O)O [octanoyl-CoA]
Orf11*; [1]
  Kd: 1 ± 0.1 µM

## CCCCCCCCCCCCCCCCCC(=O)SCCNC(=O)CCNC(=O)[C@H](O)C(C)(C)COP(=O)(O)OP(=O)(O)OC[C@H]1O[C@@H](n2cnc3c(N)ncnc32)[C@H](O)[C@@H]1OP(=O)(O)O [stearoyl-CoA]
Orf11*; [1]
  Kd: 4.3 ± 0.8 µM

## CC(C(=O)O)C(=O)SCCNC(=O)CCNC(=O)[C@H](O)C(C)(C)COP(=O)(O)OP(=O)(O)OC[C@H]1O[C@@H](n2cnc3c(N)ncnc32)[C@H](O)[C@@H]1OP(=O)(O)O (stereo partly drawn) [methylmalonyl-CoA]
Orf11*/Dbv8
  binding to the enzyme (ITC): does not bind

## CC(C)(COP(=O)(O)OP(=O)(O)OC[C@H]1O[C@@H](n2cnc3c(N)ncnc32)[C@H](O)[C@@H]1OP(=O)(O)O)[C@@H](O)C(=O)NCCC(=O)NCCS [CoA 5, coenzyme A]
Orf11*/Dbv8
  binding to the enzyme (ITC): barely binds

## CCCCCCCCCCCCCCCC(=O)SCCNC(=O)CCNC(=O)[C@H](O)C(C)(C)COP(=O)(O)OP(=O)(O)OC[C@H]1O[C@@H](n2cnc3c(N)ncnc32)[C@H](O)[C@@H]1OP(=O)(O)O [palmitoyl-CoA]
Orf11*; [1]
  Kd: 0.4 ± 0.08 µM

## CN[C@H](CC(C)C)C(=O)N[C@H]1C(=O)N[C@@H](CC(N)=O)C(=O)N[C@H]2C(=O)N[C@H]3C(=O)N[C@H](C(=O)N[C@H](C(=O)O)c4cc(O)cc(O)c4-c4cc3ccc4O)[C@H](O)c3ccc(c(Cl)c3)Oc3cc2cc(c3O[C@@H]2O[C@H](CO)[C@@H](O)[C@H](O)[C@H]2O[C@H]2C[C@](C)(N)[C@H](O)[C@H](C)O2)Oc2ccc(cc2Cl)[C@H]1O [Vancomycin, vancomycin]
ATCC 51559; Enterococcus, ATCC 51559 / VRE, 22 h, read-out: MIC ATCC 51559
  MIC: 1020 µg/mL (≈ 707 µM)
ATCC 29302; 22 h, read-out: MIC ATCC 29302
  MIC: 1 µg/mL (≈ 0.69 µM)
ATCC 33186; 22 h, read-out: MIC ATCC 33186
  MIC: 4 µg/mL (≈ 2.76 µM)
ATCC 700221; Enterococcus, ATCC 700221 / VRE, 22 h, read-out: MIC ATCC 700221
  MIC: > 128 µg/mL
ATCC 51299; 22 h, read-out: MIC ATCC 51299
  MIC: > 64 µg/mL
ATCC 700802; 22 h, read-out: MIC ATCC 700802
  MIC: 64 µg/mL (≈ 44.2 µM)
E. faecalis (ATCC 51559); Enterococcus faecalis, ATCC51559, 48 h, read-out: ED50 against ATCC 51559
  ED50: > 128 mg/kg
